# Laboratory results published in ChEMBL document CHEMBL3108687, “Isolation and structures of pipecolidepsins A and B, cytotoxic cyclic depsipeptides from the Madagascan sponge Homophymia lamellosa” (2014).
# What was measured:
# Type in all cases: functional
# A549 = experiment: Growth inhibition of human A549 cells after 72 hrs by sulforhodamine B assay; conditions: A549, 72 h
# MDA-MB-231 = experiment: Growth inhibition of human MDA-MB-231 cells after 72 hrs by sulforhodamine B assay; conditions: MDA-MB-231, 72 h
# HT-29 = experiment: Growth inhibition of human HT-29 cells after 72 hrs by sulforhodamine B assay; conditions: HT-29, 72 h
SMILES,GI50 (A549) [nM],GI50 (MDA-MB-231) [nM],GI50 (HT-29) [nM]
CCO[C@H](C(N)=O)[C@@H]1NC(=O)[C@H](CCC(N)=O)N(C)C(=O)[C@H](CC(C)C)NC(=O)[C@@H](CCCCN)NC(=O)[C@@H]([C@@H](C)O)NC(=O)[C@H](NC(=O)[C@@H](NC(=O)[C@H](O)[C@H](O)[C@H](CCC(N)=O)NC(=O)[C@@H](CC(=O)O)NC(=O)[C@H](C)[C@H](O)[C@H](C)CC(C)C)[C@@H](C)[C@@H](C)C(N)=O)[C@@H]([C@H](C)C(C)C)OC(=O)[C@@H]2CCCCN2C(=O)[C@@H](CC(=O)O)NC1=O,600,700,1120
CCO[C@H](C(N)=O)[C@@H]1NC(=O)[C@H](CCC(N)=O)N(C)C(=O)[C@H](CC(C)C)NC(=O)[C@@H](CCCCN)NC(=O)[C@@H]([C@@H](C)O)NC(=O)[C@H](NC(=O)[C@@H](NC(=O)[C@H](O)[C@H](O)[C@H](CCC(N)=O)NC(=O)[C@H](NC(=O)[C@H](C)[C@H](O)[C@H](C)CC(C)C)[C@H](O)C(=O)O)[C@@H](C)[C@@H](C)C(N)=O)[C@@H]([C@H](C)C(C)C)OC(=O)[C@@H]2CCCCN2C(=O)[C@@H](CC(=O)O)NC1=O,40,20,10
